Data reported in EP4635500A1, “THERAPEUTIC AGENT FOR BACTERIAL INFECTION” (Sumitomo Pharma Co., Ltd., priority 2022, dated 2024).
≈ marks a conversion by molar mass, not a printed value. Where two headings read alike, the source gives them in different places.

System: P. aeruginosa
Assay: MIC, broth microdilution, CDC/FDA Antibiotic Resistance Isolate Bank (Example 7, Tables 10, 15)
Type: cell-based
Conditions: for MIC: Pseudomonas aeruginosa, read-out: MIC
[1] = 26 metallo-carbapenemase-producing P. aeruginosa strains, β-lactamase inhibitor µg/mL in parentheses
[2] = 96 strains of P. aeruginosa, β-lactamase inhibitor µg/mL in parentheses

CO/N=C(\C(=O)N[C@@H]1C(=O)N2C(C(=O)[O-])=C(C[n+]3ccn4ncccc43)CS[C@H]12)c1nsc(N)n1 [Cefozopran, cefozopran]
MIC against 26 metallo-carbapenemase-producing strains MIC50 [1]: >64 µg(mL) | MIC against 26 metallo-carbapenemase-producing strains MIC90 [1]: >64 µg(mL) | MIC against 26 metallo-carbapenemase-producing strains MICrange [1]: >64 µg(mL) | MIC against 96 strains of P. aeruginosa MIC50 [2]: 32 µg(mL) | MIC against 96 strains of P. aeruginosa MIC90 [2]: >64 µg(mL) | MIC (P. aeruginosa KUB No. 579, AR Bank # 447): 0.5 µg/mL (≈ 0.97 µM) | MIC (P. aeruginosa KUB No. 5083, AR Bank # 250): > 64 µg/mL | MIC (P. aeruginosa KUB No. 5551, AR Bank # 54): > 64 µg/mL | MIC (P. aeruginosa KUB No. 5561, AR Bank # 64): > 64 µg/mL | MIC (P. aeruginosa KUB No. 5587, AR Bank # 90): > 64 µg/mL | MIC (P. aeruginosa KUB No. 5589, AR Bank # 92): > 64 µg/mL | MIC (P. aeruginosa KUB No. 5591, AR Bank # 94): 64 µg/mL (≈ 124 µM) | MIC (P. aeruginosa KUB No. 5592, AR Bank # 95): 1 µg/mL (≈ 1.94 µM) | MIC (P. aeruginosa KUB No. 5597, AR Bank # 100): > 64 µg/mL | MIC (P. aeruginosa KUB No. 5600, AR Bank # 103): > 64 µg/mL | MIC (P. aeruginosa KUB No. 5602, AR Bank # 105): 16 µg/mL (≈ 31 µM) | MIC (P. aeruginosa KUB No. 5605, AR Bank # 108): > 64 µg/mL | MIC (P. aeruginosa KUB No. 5607, AR Bank # 110): > 64 µg/mL | MIC (P. aeruginosa KUB No. 5608, AR Bank # 111): > 64 µg/mL | MIC (P. aeruginosa KUB No. 5662, AR Bank # 229): 16 µg/mL (≈ 31 µM) | MIC (P. aeruginosa KUB No. 5663, AR Bank # 230): > 64 µg/mL | MIC (P. aeruginosa KUB No. 5664, AR Bank # 231): > 64 µg/mL | MIC (P. aeruginosa KUB No. 5665, AR Bank # 232): 4 µg/mL (≈ 7.76 µM) | MIC (P. aeruginosa KUB No. 5666, AR Bank # 23): 2 µg/mL (≈ 3.88 µM) | MIC (P. aeruginosa KUB No. 5667, AR Bank # 234): 2 µg/mL (≈ 3.88 µM) | MIC (P. aeruginosa KUB No. 5668, AR Bank # 235): > 64 µg/mL | MIC (P. aeruginosa KUB No. 5669, AR Bank # 236): 4 µg/mL (≈ 7.76 µM) | MIC (P. aeruginosa KUB No. 5670, AR Bank # 237): 0.5 µg/mL (≈ 0.97 µM) | MIC (P. aeruginosa KUB No. 5671, AR Bank # 238): 1 µg/mL (≈ 1.94 µM) | MIC (P. aeruginosa KUB No. 5672, AR Bank # 239): > 64 µg/mL | MIC (P. aeruginosa KUB No. 5673, AR Bank # 240): > 64 µg/mL | MIC (P. aeruginosa KUB No. 5674, AR Bank # 241): > 64 µg/mL | MIC (P. aeruginosa KUB No. 5675, AR Bank # 242): > 64 µg/mL | MIC (P. aeruginosa KUB No. 5676, AR Bank # 243): > 64 µg/mL | MIC (P. aeruginosa KUB No. 5677, AR Bank # 244): 8 µg/mL (≈ 15.5 µM) | MIC (P. aeruginosa KUB No. 5678, AR Bank # 245): > 64 µg/mL | MIC (P. aeruginosa KUB No. 5679, AR Bank # 246): > 64 µg/mL | MIC (P. aeruginosa KUB No. 5680, AR Bank # 247): 4 µg/mL (≈ 7.76 µM) | MIC (P. aeruginosa KUB No. 5681, AR Bank # 248): > 64 µg/mL | MIC (P. aeruginosa KUB No. 5682, AR Bank # 249): > 64 µg/mL | MIC (P. aeruginosa KUB No. 5684, AR Bank # 251): 8 µg/mL (≈ 15.5 µM) | MIC (P. aeruginosa KUB No. 5685, AR Bank # 252): 16 µg/mL (≈ 31 µM) | MIC (P. aeruginosa KUB No. 5686, AR Bank # 253): 4 µg/mL (≈ 7.76 µM) | MIC (P. aeruginosa KUB No. 5687, AR Bank # 254): > 64 µg/mL | MIC (P. aeruginosa KUB No. 5688, AR Bank # 255): > 64 µg/mL | MIC (P. aeruginosa KUB No. 5689, AR Bank # 256): 0.5 µg/mL (≈ 0.97 µM) | MIC (P. aeruginosa KUB No. 5690, AR Bank # 257): 8 µg/mL (≈ 15.5 µM) | MIC (P. aeruginosa KUB No. 5691, AR Bank # 258): 1 µg/mL (≈ 1.94 µM) | MIC (P. aeruginosa KUB No. 5692, AR Bank # 259): 1 µg/mL (≈ 1.94 µM) | MIC (P. aeruginosa KUB No. 5693, AR Bank # 260): 4 µg/mL (≈ 7.76 µM) | MIC (P. aeruginosa KUB No. 5694, AR Bank # 261): 4 µg/mL (≈ 7.76 µM) | MIC (P. aeruginosa KUB No. 5695, AR Bank # 262): 2 µg/mL (≈ 3.88 µM) | MIC (P. aeruginosa KUB No. 5696, AR Bank # 263): 2 µg/mL (≈ 3.88 µM) | MIC (P. aeruginosa KUB No. 5697, AR Bank # 264): 0.5 µg/mL (≈ 0.97 µM) | MIC (P. aeruginosa KUB No. 5698, AR Bank # 265): 8 µg/mL (≈ 15.5 µM) | MIC (P. aeruginosa KUB No. 5699, AR Bank # 266): 8 µg/mL (≈ 15.5 µM) | MIC (P. aeruginosa KUB No. 5700, AR Bank # 267): 4 µg/mL (≈ 7.76 µM) | MIC (P. aeruginosa KUB No. 5701, AR Bank # 268): 32 µg/mL (≈ 62.1 µM) | MIC (P. aeruginosa KUB No. 5702, AR Bank # 269): 1 µg/mL (≈ 1.94 µM) | MIC (P. aeruginosa KUB No. 5703, AR Bank # 270): 4 µg/mL (≈ 7.76 µM) | MIC (P. aeruginosa KUB No. 5704, AR Bank # 271): 1 µg/mL (≈ 1.94 µM) | MIC (P. aeruginosa KUB No. 5705, AR Bank # 272): 0.5 µg/mL (≈ 0.97 µM) | MIC (P. aeruginosa KUB No. 5747, AR Bank # 351): > 64 µg/mL | MIC (P. aeruginosa KUB No. 5748, AR Bank # 352): > 64 µg/mL | MIC (P. aeruginosa KUB No. 5749, AR Bank # 353): > 64 µg/mL | MIC (P. aeruginosa KUB No. 5750, AR Bank # 354): 8 µg/mL (≈ 15.5 µM) | MIC (P. aeruginosa KUB No. 5751, AR Bank # 355): 16 µg/mL (≈ 31 µM) | MIC (P. aeruginosa KUB No. 5752, AR Bank # 356): > 64 µg/mL | MIC (P. aeruginosa KUB No. 5753, AR Bank # 357): > 64 µg/mL | MIC (P. aeruginosa KUB No. 5754, AR Bank # 358): 16 µg/mL (≈ 31 µM) | MIC (P. aeruginosa KUB No. 5755, AR Bank # 359): 16 µg/mL (≈ 31 µM) | MIC (P. aeruginosa KUB No. 5756, AR Bank # 360): 8 µg/mL (≈ 15.5 µM) | MIC (P. aeruginosa KUB No. 5785, AR Bank # 439): > 64 µg/mL | MIC (P. aeruginosa KUB No. 5786, AR Bank # 440): 32 µg/mL (≈ 62.1 µM) | MIC (P. aeruginosa KUB No. 5787, AR Bank # 441): > 64 µg/mL | MIC (P. aeruginosa KUB No. 5788, AR Bank # 443): > 64 µg/mL | MIC (P. aeruginosa KUB No. 5789, AR Bank # 444): > 64 µg/mL | MIC (P. aeruginosa KUB No. 5790, AR Bank # 445): 32 µg/mL (≈ 62.1 µM) | MIC (P. aeruginosa KUB No. 5793, AR Bank # 449): > 64 µg/mL | MIC (P. aeruginosa KUB No. 5798, AR Bank # 455): 32 µg/mL (≈ 62.1 µM) | MIC (P. aeruginosa KUB No. 5799, AR Bank # 456): 32 µg/mL (≈ 62.1 µM) | MIC (P. aeruginosa KUB No. 5800, AR Bank # 457): > 64 µg/mL | MIC (P. aeruginosa KUB No. 5801, AR Bank # 458): 64 µg/mL (≈ 124 µM) | MIC (P. aeruginosa KUB No. 5802, AR Bank # 459): 32 µg/mL (≈ 62.1 µM) | MIC (P. aeruginosa KUB No. 5804, AR Bank # 862): 32 µg/mL (≈ 62.1 µM) | MIC (P. aeruginosa KUB No. 5805, AR Bank # 863): > 64 µg/mL | MIC (P. aeruginosa KUB No. 5806, AR Bank # 864): 64 µg/mL (≈ 124 µM) | MIC (P. aeruginosa KUB No. 5813, AR Bank # 508): > 0.064 µg/mL | MIC (P. aeruginosa KUB No. 5814, AR Bank # 509): > 0.064 µg/mL | MIC (P. aeruginosa KUB No. 5815, AR Bank # 510): 0.004 µg/mL (≈ 0.00776 µM) | MIC (P. aeruginosa KUB No. 5816, AR Bank # 511): 0.0005 µg/mL (≈ 0.00097 µM) | MIC (P. aeruginosa KUB No. 5817, AR Bank # 512): 0.002 µg/mL (≈ 0.00388 µM) | MIC (P. aeruginosa KUB No. 5818, AR Bank # 513): 0.016 µg/mL (≈ 0.031 µM) | MIC (P. aeruginosa KUB No. 5819, AR Bank # 514): 0.0005 µg/mL (≈ 0.00097 µM) | MIC (P. aeruginosa KUB No. 5820, AR Bank # 515): 0.064 µg/mL (≈ 0.124 µM) | MIC (P. aeruginosa KUB No. 5821, AR Bank # 516): > 0.064 µg/mL | MIC (P. aeruginosa KUB No. 5823, AR Bank # 518): > 0.064 µg/mL | MIC (P. aeruginosa KUB No. 5831, AR Bank # 526): 0.008 µg/mL (≈ 0.0155 µM) | MIC (P. aeruginosa KUB No. 5832, AR Bank # 527): 0.008 µg/mL (≈ 0.0155 µM) | MIC (P. aeruginosa KUB No. 5833, AR Bank # 528): 0.032 µg/mL (≈ 0.0621 µM) | MIC (P. aeruginosa KUB No. 5834, AR Bank # 529): 0.008 µg/mL (≈ 0.0155 µM)
